# In US8293729B2 (Boehringer Ingelheim International GmbH, priority 2009, dated 2012):
# Target: T1, human GPR119 receptor (Homo sapiens, UniProt Q8TDV5, S329A/T327A)
# T1 construct: N-terminal leader […]; expressed in transfected cells
# T1 sequence (Q8TDV5 with tags, fused parts or gaps T327A/S329A): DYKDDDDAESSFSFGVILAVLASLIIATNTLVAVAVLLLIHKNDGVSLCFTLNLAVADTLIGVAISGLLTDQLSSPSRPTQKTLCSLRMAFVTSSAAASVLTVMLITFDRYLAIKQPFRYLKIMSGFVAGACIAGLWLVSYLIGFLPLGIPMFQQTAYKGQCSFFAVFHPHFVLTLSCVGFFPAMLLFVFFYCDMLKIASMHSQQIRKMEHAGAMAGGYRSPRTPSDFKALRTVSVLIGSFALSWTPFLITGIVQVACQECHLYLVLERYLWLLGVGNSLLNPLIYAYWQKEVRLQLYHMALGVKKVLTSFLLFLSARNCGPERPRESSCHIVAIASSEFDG
# Experiment: cAMP assay (LANCE cAMP-384) in HEK293 cells stably expressing mutant human GPR119 receptor
# Format: cell-based
# Details: HEK293, 20 min; at 10 μM; printed in EC50 column of the 34th table; read-out: stimulation in % at 10 μM
# Method: Quantitative detection of cAMP accumulation from cells expressing human GPR119 receptor was achieved using Perkin Elmer's LANCE cAMP-384 Kit (Cat#AD0264) according to the manufacturer's protocol. Briefly, HEK293 cells stably expressing a mutant form of the human GPR119 receptor (Methionine 1 replaced with the amino acid sequence […] (SEQ ID NO: 1), and T327 & S329 changed to alanines) were grown to 50-70% confluency in cell culture media (DMEM, 10% heat inactivated Fetal Bovine Serum, 50 I.U./mL penicillin, 50 μg/mL streptomycin, 10 mM HEPES, 20 μg/mL G418 Sulfate). On the day of the assay, GPR119 stable HEK293 cells were lifted from the tissue culture plate and 1000 cells/well were incubated along with various concentrations of test compounds for 20 min at 37° C. Detection Buffer (50mM HEPES, 10mM calcium chloride, 0.35% Triton X-100, 1 mg/mL BSA) containing cAMP-specific antibody was then added to all wells and allowed to equilibrate in the dark for 10 minutes at room temperature. Upon equilibration, Detection Buffer containing europium-labeled cAMP tracer complex was added to all wells and allowed to react for 1 hour at room temperature. After 1 hour, bound europium-labeled cAMP tracer was measured using a Perkin Elmer ViewLux. The quantity of cAMP generated in each well was derived from a standard curve. EC50 was determined using nonlinear regression analysis of the cAMP values over a range of agonist concentration (12 points spanning the range from 30 μM to 100pM).
# For some compounds for which no EC50 value could be determined, the efficacy is provided at a single concentration (10 μM) yielding % stimulation values.
row,SMILES,activation at 10 µM [%]
1,CC(C)OC(=O)CN1CCC(ON=C2CCN(c3ccc(S(C)(=O)=O)cc3F)CC2)CC1 [Example 65-3],64

# Same assay, conditions: HEK293, 20 min; at 10 μM; printed in EC50 column of the 36th table; read-out: stimulation in % at 10 μM
row,SMILES,activation at 10 µM [%]
1,CCc1ncc(CN2CCC(ON=C3CCN(c4ccc(S(C)(=O)=O)cc4F)CC3)CC2)cn1 [Example 66-49],75
2,COc1ccccc1CN1CCC(ON=C2CCN(c3ccc(S(C)(=O)=O)cc3F)CC2)CC1 [Example 66-18],66

# Same assay, conditions: HEK293, 20 min; single concentration 10 μM; given where no EC50 value could be determined; read-out: % stimulation at 10 μM
row,SMILES,activation at 10 µM [%]
1,CC(C)OC(=O)N1CCC(ON=C2CCN(c3nccc(CO)c3F)CC2)CC1 [Example 2-64],79
2,COc1ncc(-c2cc(F)c(N3CCC(=NOC4CCN(C(=O)OC(C)C)CC4)CC3)cc2F)c(OC)n1 [Example 27-31],70

# Same assay, conditions: cAMP accumulation, HEK293 cells stably expressing mutant human GPR119; read-out: EC50
row,SMILES,EC50 [nM]
1,Cc1cc(C(=O)O)nc(N2CCC(=NOC3CCN(C(=O)OC(C)C)CC3)CC2)n1 [Example 2-65],> 10000
2,Cc1c(Cl)ncnc1N1CCC(=NOC2CCN(C(=O)OC(C)C)CC2)CC1 [Example 2-52],653
3,CCOC(=O)c1cnn(Cc2cc(F)c(N3CCC(=NOC4CCN(C(=O)OC(C)C)CC4)CC3)cc2F)c1 [Example 14-11],190
4,"CCNC(=O)NCc1cc(F)c(N2CCC(=NOC3CCN(C(=O)OC(C)C)CC3)CC2)cc1F [Example 16-1, 4-(1-{4-[(3-Ethyl-ureido)-methyl]-2,5-difluoro-phenyl}-piperidin-4-ylideneaminooxy)-piperidine-1-carboxylic acid isopropyl ester]",168
5,CC(C)OC(=O)N1CCC(ON=C2CCN(c3cc(O)ncc3F)CC2)CC1 [Example 2-74],> 10000
6,CC(C)OC(=O)N1CCC(ON=C2CCN(c3cc(F)c(CNS(C)(=O)=O)cc3F)CC2)CC1 [Example 16-3],51
7,"CC(C)OC(=O)N1CCC(ON=C2CCN(c3cc(F)c(NS(C)(=O)=O)cc3F)CC2)CC1 [Example 44-1, 4-[1-(2,5-Difluoro-4-methanesulfonylamino-phenyl)-piperidin-4-ylideneaminooxy]-piperidine-1-carboxylic acid isopropyl ester]",170
8,"CC(C)OC(=O)N1CCC(ON=C2CCN(c3cc(F)c(-n4ccnc4)cc3F)CC2)CC1 [Example 22-1, 4-[1-(2,5-Difluoro-4-imidazol-1-yl-phenyl)-piperidin-4-ylideneaminooxy]-piperidine-1-carboxylic acid isopropyl ester]",435
9,"CC(C)OC(=O)N1CCC(ON=C2CCN(c3cc(F)c(NC(N)=O)cc3F)CC2)CC1 [Example 37-1, 4-[1-(2,5-Difluoro-4-ureido-phenyl)-piperidin-4-ylideneaminooxy]-piperidine-1-carboxylic acid isopropyl ester]",71
10,CC(C)OC(=O)N1CCC(ON=C2CCN(c3cc(F)c(CNC=O)cc3F)CC2)CC1 [Example 16-8],120
11,COc1nc(N2CCC(=NOC3CCN(C(=O)OC(C)C)CC3)CC2)ncc1Br [Example 2-56],> 10000
12,CC(C)OC(=O)N1CCC(ON=C2CCN(c3cc(F)c(-c4ccccn4)cc3F)CC2)CC1 [Example 27-27],159
13,"CC(=O)Nc1cc(F)c(N2CCC(=NOC3CCN(C(=O)OC(C)C)CC3)CC2)cc1F [Example 35-1, 4-[1-(4-Acetylamino-2,5-difluoro-phenyl)-piperidin-4-ylideneaminooxy]-piperidine-1-carboxylic acid isopropyl ester]",17
14,CC(C)OC(=O)N1CCC(ON=C2CCN(c3cc(F)c(C(=O)NCCC(=O)O)cc3F)CC2)CC1 [Example 30-2],1150
15,CC(C)OC(=O)N1CCC(ON=C2CCN(c3ncc(Br)c(N(C)C)n3)CC2)CC1 [Example 2-54],> 10000
16,Cc1ccsc1-c1cc(F)c(N2CCC(=NOC3CCN(C(=O)OC(C)C)CC3)CC2)cc1F [Example 27-24],329
17,CC(C)OC(=O)N1CCC(ON=C2CCN(c3cc(F)c(NS(N)(=O)=O)cc3F)CC2)CC1 [Example 38-1],197
18,"CC(C)OC(=O)N1CCC(ON=C2CCN(c3cc(F)c(CN4CCOC4=O)cc3F)CC2)CC1 [Example 15-1, 4-{1-[2,5-DIFLUORO-4-(2-OXO-OXAZOLIDIN-3-YLMETHYL)-PHENYL]-PIPERIDIN-4-YLIDENEAMINOOXY}-PIPERIDINE-1-CARBOXYLIC ACID ISOPROPYL ESTER]",140
19,CC(C)OC(=O)N1CCC(ON=C2CCN(c3cc(F)c(S(C)(=O)=O)cc3F)CC2)CC1 [Example 2-60],28
20,CC(C)OC(=O)N1CCC(ON=C2CCN(c3cc(F)c(-c4cn[nH]c4)cc3F)CC2)CC1 [Example 27-10],177

# Same assay, conditions: the 15th table; read-out: EC50
row,SMILES,EC50 [nM]
1,CNCCN(C)C(=O)c1cc(F)c(N2CCC(=NOC3CCN(C(=O)OC(C)C)CC3)CC2)cc1F [Example 29-5],215

# Same assay, conditions: the 19th table; unit inferred; read-out: EC 50
row,SMILES,EC50 [nM]
1,CCc1cnc(N2CCC(ON=C3CCN(c4cc(F)c(C(=O)N5CCCCC5CN)cc4F)CC3)CC2)nc1 (stereo not drawn) [Example 29-131],64
2,CCc1cnc(N2CCC(ON=C3CCN(c4cc(F)c(C(=O)NC5CNC5)cc4F)CC3)CC2)nc1 [Example 29-116],322

# Same assay, conditions: the 28th table; read-out: EC50
row,SMILES,EC50 [nM]
1,"CC(C)OC(=O)N1CCC(ON=C2CCN(c3ncc(-n4cncn4)cc3F)CC2)CC1 [Example 51-1, 4-(3′-Fluoro-5′-[1,2,4]triazol-1-yl-2,3,5,6-tetrahydro-[1,2]bipyridinyl-4-ylideneaminooxy)-piperidine-1-carboxylic acid isopropyl ester]",327

# Same assay, conditions: the 30th table; read-out: EC50
row,SMILES,EC50 [nM]
1,"Cc1cnn(Cc2cnc(N3CCC(=NOC4CCN(C(=O)OC(C)C)CC4)CC3)c(F)c2)c1 [Example 54-1, 4-[3′-Fluoro-5′-(4-methyl-pyrazol-1-ylmethyl)-2,3,5,6-tetrahydro-[1,2]bipyridinyl-4-ylideneaminooxy]-piperidine-1-carboxylic acid isopropyl ester]",445
2,Cc1nnnn1Cc1cnc(N2CCC(=NOC3CCN(C(=O)OC(C)C)CC3)CC2)c(F)c1 [Example 54-6],1150

# Same assay, conditions: the 32nd table; read-out: EC50
row,SMILES,EC50 [nM]
1,CS(=O)(=O)c1ccc(N2CCC(=NOC3CCN(c4nccc(Cl)n4)CC3)CC2)c(F)c1 [Example 63-6],1340
2,"CS(=O)(=O)c1ccc(N2CCC(=NOC3CCN(c4ccccn4)CC3)CC2)c(F)c1 [Example 63-1, 1-(2-Fluoro-4-methanesulfonyl-phenyl)-piperidin-4-one O-(3,4,5,6-tetrahydro-2H-[1,2′]bipyridinyl-4-yl)-oxime]",459

# Same assay, conditions: the 33rd table; read-out: EC50
row,SMILES,EC50 [nM]
1,CC1CC1COC(=O)N1CCC(ON=C2CCN(c3ccc(S(C)(=O)=O)cc3F)CC2)CC1 (stereo not drawn) [Example 64-8],32

# Same assay, conditions: the 34th table, compounds 65-1 to 65-24; read-out: EC50
row,SMILES,EC50 [nM]
1,CS(=O)(=O)c1ccc(N2CCC(=NOC3CCN(S(=O)(=O)c4ccccc4)CC3)CC2)c(F)c1 [Example 65-18],1100

# Same assay, conditions: the 36th table, compounds 66-1 to 66-51; read-out: EC50
row,SMILES,EC50 [nM]
1,Cc1cc(CN2CCC(ON=C3CCN(c4ccc(S(C)(=O)=O)cc4F)CC3)CC2)n(C)n1 [Example 66-13],> 10000
2,"Cn1cccc1CN1CCC(ON=C2CCN(c3ccc(S(C)(=O)=O)cc3F)CC2)CC1 [Example 66-1, 1-(2-Fluoro-4-methanesulfonyl-phenyl)-piperidin-4-one O-[1-(1-methyl-1H-Pyrrol-2-ylmethyl)-piperidin-4-yl]-oxime]",> 10000

# Same assay, conditions: the 43rd table, compounds 75-1 to 75-38; read-out: EC50
row,SMILES,EC50 [nM]
1,CC(C)OC(=O)N1CCC(ON=C2CCN(c3cc(F)c(CC(=O)N4CCCCC4CN4CCOCC4)cc3F)CC2)CC1 (stereo not drawn) [Example 75-31],192
2,CC(C)OC(=O)N1CCC(ON=C2CCN(c3cc(F)c(CC(=O)N4CCCCC4CN4CCCCC4)cc3F)CC2)CC1 (stereo not drawn) [Example 75-32],300
3,CC(C)OC(=O)N1CCC(ON=C2CCN(c3cc(F)c(CC(=O)NC[C@@H]4CCCN4)cc3F)CC2)CC1 [Example 75-10],203
4,CC(C)OC(=O)N1CCC(ON=C2CCN(c3cc(F)c(CC(=O)N4CCC(CN5CCCC5)CC4)cc3F)CC2)CC1 [Example 75-34],146

# Same assay, conditions: the 44th table, compounds 77-1 to 77-14; read-out: EC50
row,SMILES,EC50 [nM]
1,"CCc1cnc(N2CCC(ON=C3CCN(c4cc(F)c(CC(=O)NC5CCN(C)CC5)cc4F)CC3)CC2)nc1 [Example 77-1, 2-(4-{4-[1-(5-ethyl-pyrimidin-2-yl)-piperidin-4-yloxyimino]-piperidin-1-yl}-2,5-difluoro-phenyl)-N-(1-methyl-piperidin-4-yl)-acetamide]",76
